Assay results taken from patent US9538759B2, “Chemical compositions and methodology to enhance plant growth and development” (priority 2013, dated 2017).

Key:
Type in all cases: in vivo
[1] = test system: seed; assay: Replicated field plots comparing two lipoxygenase inhibitors as seed treatments, Safford, Arizona; conditions: for Germination % / Seedling Ht. (cm) / Surviving Stand %: inhibitor coated at 2.0 g per kg dry seed; for Germination % / Seedling Ht. (cm) / Surviving Stand % / Emergence Coeff.: fungicide co-treatment, mean ± standard error; for Emergence Coeff.: smaller coefficient = faster seedling emergence, 2.0 g per kg dry seed
Excerpt: The presence of lipoxygenase isoenzymes has always been considered a necessary enzymatic constituent of seed, with the enzyme especially predominant in oil seeds. The detrimental effects of lipoxygenase activity on the viability and storage attributes of seeds have been reported by a number of authors. (Leopold; Parrish; Pfeiffer, et al.: and Hajika, et al.)
Propyl gallate is the inhibitor and antioxidant of choice for inclusion in the improvement of U.S. Pat. No. 4,209,316 described in this application. […] Selected location: Safford, Arizona Experimental Research Station. Each data entry represents the mean of replicated random samples plus or minus the standard error. The smaller the emergence coefficient, the faster the speed of seedling emergence from the soil. All treatments except the first control received a fungicide co-treatment. Lipoxygenase inhibitors were coated on the seed at a rate of 2.0 grams per kilogram of dry seed.

[2] = test system: Acala type cottons; assay: Harvested seed cotton weight of container grown cottons, Tucson, Ariz.
Excerpt: Table three illustrates the comparative advantage of the combination of buffered AMP and propyl gallate liquid formulation applied to two sets of Acala type cottons container grown in Tucson, Ariz. An extended harvest period was possible. Seed cotton was hand picked over several weeks. Bolls with fiber and seed were dried, individually weighed, and treatments were separated and bulked together. Osmocote complete fertilizer was applied twice—at two and four weeks—following the chemical formulation applications.

[3] = test system: seeds; assay: Classical antioxidants applied to seeds at much higher concentrations

CCCOC(=O)c1cc(O)c(O)c(O)c1 [Propyl Gallate, propyl gallate]
Germination % [1]: 23.0 ± 2.3%
Seedling Ht. (cm) [1]: 17.3 ± 0.6 cm
Surviving Stand % [1]: 57.8 ± 3.0%
Emergence Coeff. [1]: 0.52 ± 0.03
Combined weight of harvested seed cotton per group (in grams) ([2]; group one): 640 grams
Combined weight of harvested seed cotton per group (in grams) ([2]; group two): 423 grams

O=C1O[C@H]([C@@H](O)CO)C(O)=C1O [ascorbic acid]
enhancement of seed germination and viability traits [3]: no enhancement

Cc1cc(C(C)(C)C)c(O)c(C(C)(C)C)c1 [butylated hydroxylated toluene]
enhancement of seed germination and viability traits [3]: no enhancement

Oc1ccc(O)cc1 [Hydroquinone]
Germination % [1]: 22.9 ± 3.1%
Seedling Ht. (cm) [1]: 16.6 ± 0.4 cm
Surviving Stand % [1]: 60.6 ± 3.5%
effectiveness as lipoxygenase inhibitor seed treatment ([1]; seed treatment with inhibitor alone): effective
Emergence Coeff. [1]: 0.50 ± 0.04

vitamin E
enhancement of seed germination and viability traits [3]: no enhancement
